The results in this text go back to patent US20210355104A1, “ADENOSINE RECEPTOR BINDING COMPOUNDS” (Nikang Therapeuticsm Inc., priority 2018, published 2021).

SMILES strings stand for the structures. “And” between values parts separate entries of the source, which are not always exact repeats. Identical values can stand only once. Bounds are passed on as bounds.

Chain of Adenosine A2A receptor (P29274 whole entry): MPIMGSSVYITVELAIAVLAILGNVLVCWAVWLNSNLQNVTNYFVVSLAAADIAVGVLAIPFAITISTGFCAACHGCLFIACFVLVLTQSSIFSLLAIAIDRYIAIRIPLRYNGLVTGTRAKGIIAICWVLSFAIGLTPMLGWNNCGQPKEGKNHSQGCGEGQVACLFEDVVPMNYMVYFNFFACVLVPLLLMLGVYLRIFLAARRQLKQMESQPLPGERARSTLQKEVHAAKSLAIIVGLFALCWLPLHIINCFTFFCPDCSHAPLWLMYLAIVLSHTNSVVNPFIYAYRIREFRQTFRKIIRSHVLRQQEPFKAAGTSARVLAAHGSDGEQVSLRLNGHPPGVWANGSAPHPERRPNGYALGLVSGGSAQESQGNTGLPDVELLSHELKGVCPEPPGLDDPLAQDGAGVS

The first assay deals with Adenosine A2A receptor (Homo sapiens, UniProt P29274). In words: cAMP assay in 293A cells stably expressing the adenosine A2A receptor (CGS21680 stimulation, HTRF). It counts as cell-based. On the set-up: expressed in transfected cells; host or cells: 293A cells (Invitrogen, Cat# R705-07) infected with A2A-expressing lentivirus (custom packaged by Biosettia), puromycin selected. As to conditions: 293A cells stably expressing A2A receptor; 0.1% BSA; 1 uM CGS21680 stimulation; replicate values separated by /; read-out: cAMP (nM) 0.1% BSA, 1 uM CGS. The procedure:
A 293A cell line (Invitrogen, Cat# R705-07) stably expressing the adenosine A2A receptor was generated in house. Briefly, 293A cells were seeded in 6-well plate and infected with A2A expressing lentivirus (custom packaged by Biosettia) and selected with puromycin (1 ug/ml). Cells survived selection were confirmed for A2A expression by RT-qPCR (RT Reagent: High-Capacity cDNA Reverse Transcription Kit, Applied Biosystems/Thermo Fisher Cat# 4368814, qPCR reagent: SYBR™ Green Master Mix, Applied Biosystems/Thermo Fisher Cat# 4309155). The cells were maintained in DMEM/F12 medium containing 10% FBS, 100 units/ml Penicillin, 100 μg/ml Streptomycin, and 1 μg/ml puromycin at 37° C., 5% CO2. 293A-A2AR cells were harvested on the day of assay and resuspended at 0.6 million cells/ml in DMEM/F12 with 0.1% BSA and 30 U/ml denosine deaminase(Roche, Cat #: 10102121001). Serial dilutions of compounds were prepared in DMEM/F12 with 0.1% BSA to a DMSO concentration of 0.6%. After 4 μl of compound dilutions were added, 4 μl suspended cells were dispensed into low-volume white 384-well plates (Greiner Bio-One). […] The assay plate was then incubated at room temperature for 30 min. 3 μl of d2 conjugated cAMP and 3 μl cryptate conjugated anti-cAMP antibody were then added. D2 conjugated cAMP and cryptate conjugated anti-cAMP antibody (Cisbio, Cat #: 62AM6PEC) were both prepared in cell lysis buffer according to the manufacturer's instruction. After 1 h incubation at room temperature, plates were read in CIARIOstar plate reader (BMG Labtech) using the HTRF detection mode.
For orientation: Changes in cAMP serve as a functional read-out for many G protein-coupled receptors.
In the case of `Cc1cc(-c2c(OCc3nc(NCC(=O)O)cc4ccccc34)nc(N)nc2-c2ccc(F)cc2)cc(C(F)F)n1` [Example 406, (1-(((2-amino-5-(2-(difluoromethyl)-6-methylpyridin-4-yl)-6-(4-fluorophenyl)pyrimidin-4-yl)oxy)methyl)isoquinolin-3-yl)glycine], the IC50 stood at 719 nM.

The assay is the same for the next values; noted with them: 293A-A2AR cells, 0.1% BSA, 1 uM CGS; read-out: cAMP (nM) 0.1% BSA, 1 uM CGS.
Turning to `Cc1cc(-c2c(OCc3cccc(C(C)(C)NCC(=O)O)n3)nc(N)nc2-c2ccc(F)cc2)cc(C(F)F)n1` [Example 393, (2-(6-(((2-amino-5-(2-(difluoromethyl)-6-methylpyridin-4-yl)-6-(4-fluorophenyl)pyrimidin-4-yl)oxy)methyl)pyridin-2-yl)propan-2-yl)glycine], the IC50 is 628 nM and 597 nM and 892 nM and 826 nM and 566 nM and 686 nM. `CCC(C#N)(CC)c1cccc(COc2nc(N)nc(-c3ccc(F)cc3)c2-c2cc(C)nc(C(F)F)c2)n1` [Example 390, 2-(6-(((2-amino-5-(2-(difluoromethyl)-6-methylpyridin-4-yl)-6-(4-fluorophenyl)pyrimidin-4-yl)oxy)methyl)pyridin-2-yl)-2-ethylbutanenitrile]: the IC50 was 85 nM and 98 nM and 51 nM. With `CCc1nn(CC)nc1COc1nc(N)nc(-c2cccc(C#N)c2C)c1-c1cc(C)nc(C(F)F)c1` [Example 254, 3-(2-amino-6-((2,5-diethyl-2H-1,2,3-triazol-4-yl)methoxy)-5-(2-(difluoromethyl)-6-methylpyridin-4-yl)pyrimidin-4-yl)-2-methylbenzonitrile], the IC50 turned out to be 23500 nM. As to `Cc1cc(-c2c(OCCOc3cccc(CO)n3)nc(N)nc2-c2ccc(F)cc2)cc(C(F)F)n1` [Example 304, (6-(2-((2-amino-5-(2-(difluoromethyl)-6-methylpyridin-4-yl)-6-(4-fluorophenyl)pyrimidin-4-yl)oxy)ethoxy)pyridin-2-yl)methanol], the IC50 turned out to be 681 nM. As to `Cc1cc(-c2c(OCc3cccc(N(C)CCC(=O)O)n3)nc(N)nc2-c2ccc(F)cc2)cc(C(F)F)n1` [Example 328, 3-((6-(((2-amino-5-(2-(difluoromethyl)-6-methylpyridin-4-yl)-6-(4-fluorophenyl)pyrimidin-4-yl)oxy)methyl)pyridin-2-yl)(methyl)amino) propanoic acid], the IC50 is 4510 nM. `Cc1cc(-c2c(OCc3cccc(C(C)(C)C(=O)O)c3F)nc(N)nc2-c2ccc(F)cc2)cc(C(F)F)n1` [Example 370, 2-(3-(((2-amino-5-(2-(difluoromethyl)-6-methylpyridin-4-yl)-6-(4-fluorophenyl)pyrimidin-4-yl)oxy)methyl)-2-fluorophenyl)-2-methylpropanoic acid]: the IC50 was 5430 nM.

In the case of `Cc1cc(-c2c(OCc3nc4n(n3)CCCC4)nc(N)nc2-c2ccc(F)cc2)cc(C(F)F)n1` [Example 352, 5-(2-(difluoromethyl)-6-methylpyridin-4-yl)-4-(4-fluorophenyl)-6-((5,6,7,8-tetrahydro-[1,2,4]triazolo[1,5-a]pyridin-2-yl)methoxy)pyrimidin-2-amine], the IC50 came out at 1790 nM.

Turning to `Cc1cc(-c2c(OCc3ccc(F)c(C(C)(C)C(=O)O)c3)nc(N)nc2-c2ccc(F)cc2)cc(C(F)F)n1` [Example 367, 2-(5-(((2-amino-5-(2-(difluoromethyl)-6-methylpyridin-4-yl)-6-(4-fluorophenyl)pyrimidin-4-yl)oxy)methyl)-2-fluorophenyl)-2-methylpropanoic acid], the IC50 was found to be 11800 nM.

As to `CCc1c(COc2nc(N)nc(-c3ccc(F)cc3)c2-c2cc(C)nc(C(F)F)c2)nnn1C[C@H](O)CO` [Example 317, (S)-3-(4-(((2-amino-5-(2-(difluoromethyl)-6-methylpyridin-4-yl)-6-(4-fluorophenyl)pyrimidin-4-yl)oxy)methyl)-5-ethyl-1H-1,2,3-triazol-1-yl)propane-1,2-diol], the IC50 came out at 1430 nM.

Still in this assay, the particulars now being: 293A-A2AR cells, 0.1% BSA, 1 uM CGS; values separated by / are repeat determinations; read-out: cAMP (nM) 0.1% BSA, 1 uM CGS.
Consider `Cc1cc(-c2c(OCCN(C)c3ccncn3)nc(N)nc2-c2ccc(F)cc2)cc(C(F)F)n1` [Example 151, 5-(2-(difluoromethyl)-6-methylpyridin-4-yl)-4-(4-fluorophenyl)-6-(2-(methyl(pyrimidin-4-yl)amino)ethoxy)pyrimidin-2-amine], for which the IC50 is greater than 25000 nM.
